The results in this text go back to patent US20070212449A1, “Reduction of the titratable acidity and the prevention of tooth and other bone degeneration” (priority 2006, published 2007).

In one series the test system is MG-63 osteoblast cells. As to the kind of experiment: MTT-based proliferation assay, osteoblast cells. It is filed as cell-based, human. On the procedure: (§1) Human osteoblast MG-63 cells and HS-883 osteoclast cells were treated with IP6 in vitro and their abilities to proliferate and differentiate were evaluated by MTT-based cytotoxicity assay (for proliferation) and alkaline phosphatase (ALP) and matrixmetalloproteinase-2 (MMP-2), activity for differentiation of bone cells.
(§2) In an additional study, osteoblast MG-63 human osteosarcoma cells and osteoclast HS-883.T human bone giant sarcoma cells were cultured in Eagle's Minimum Essential Medium, in Eagle's Balanced Salt Solution with non-essential amino-acids and Dulbecco's Modified Eagles Medium, respectively. Both media were supplemented with 10% fetal bovine serum (FBS) and L-glutamine. Additionally, 1 mM of sodium pyruvate was added to culture media for MG-63 cells.
(§3) Stock solution of 100 mM Na-IP6 was prepared in distilled water, pH adjusted to 7.4, and diluted as needed in culture media.
(§4) Cell growth and proliferation were determined with the MTT-based cytotoxicity assay. Briefly, the MG-63 and HS-883.T cell lines were seeded into 96-well plates at a density 2000 cells per well. […] Cells were allowed to proliferate for 24 or 72 hours. 100 μL of MTT solution at concentration I mg/ml was added at the end of proliferation period to each well and allowed to incubate for 4 hours. The formazan product of MTT reduction was dissolved by adding 150 μL of DMSO. Immediately after, growth changes were evaluated by recording the reduction of MTT at 540 nm in a plate reader using data reduction software for measurement of optical density.
(In general: Tetrazolium dyes change colour on reduction, which living cells bring about.)

Series [1] is described as follows: Effect of IP6 and inositol additions on % TA of soft drinks. In kind it is physicochemical. How it is done: Titratable (total) acidity measures the total or potential acidity and indicates the total number of acid molecules, whereas a pH measurement represents the hydrogen ion concentration. The titratable acidity (as % citric acid) is calculated by titrating the beverage against sodium hydroxide (NaOH) solution to pH 8.2 and using the following relationship: [formula] in accordance with the standard procedures for determining the titratable acidity of a variety of fluids, including milk.

Series [2] is described as follows: Enamel dissolution (weight loss of enamel) in soft drinks with or without phytic acid. The arrangement: species or system human. Conditions: for effect on enamel dissolution: addition of 1% phytic acid (FIG. 10). On the procedure: For instance, studies were performed on sections of enamel removed from extracted human teeth as well as on extracted human teeth that were coated such that only the crown of the tooth (the enamel portion) was exposed to the beverage. […] These enamel specimens were immersed in the various soft drinks with or without additions of 0.5 and 1.0% by weight of dodecasodium salt of phytic acid (Inositol hexaphosphoric acid). The enamel dissolution was determined as the weight loss of the enamel at different time intervals in the untreated and treated beverages, as shown in FIGS. 7 and 8.

In another series the test system is HS-883 osteoclast cells. As to the kind of experiment: MTT-based proliferation assay, osteoclast cells. It is filed as cell-based, human. How it is done:
as §1, §2, §3, §4

Series [3] relates to alkaline phosphatase (ALP). As to the kind of experiment: ALP activity in osteoblast cells (differentiation marker). In kind it is cell-based, human. As to conditions: MG-63 cells. On the procedure:
(§5) Human osteoblast MG-63 cells and HS-883 osteoclast cells were treated with IP6 in vitro and their abilities to proliferate and differentiate were evaluated by MTT-based cytotoxicity assay (for proliferation) and alkaline phosphatase (ALP) and matrixmetalloproteinase-2 (MMP-2), activity for differentiation of bone cells. IP6 activates ALP and MMP-2 expression in osteoblast cells, indicating their better ability to lay new bone.
(§6) To study the osteoblast and osteoclast differentiation in the presence of IP6, the following markers were evaluated: alkaline phosphatase (ALP), matrix metalloproteinase-2 (MMP-2) and tartrate-resistant acid phosphatase (TRAP).
ALP activity was measured using a commercially available kit. Osteoblast cells were plated in tissue culture dishes in amount of 4×10^5 cells per plate. […] Incubation was stopped on ice; cells were washed twice with PBS and lysed with 0.25% of Triton X-100. 25 μL of lysate was mixed with 2.5 mL of ALP sample buffer, incubated for 4 or 24 hours in room temperature and absorption was read in a plate reader at λ405 nm.

Series [4] relates to matrix metalloproteinase-2 (MMP-2). As to the kind of experiment: MMP-2 (gelatinase A) zymography, culture media of osteoblast cells. It is filed as cell-based, human. Conditions: for activity of gelatinase A in culture media: osteoblast cells. How it is done: as §5, §6
(§7) To evaluate MMPs activity in culture medium zymography was performed. Cells were plated in tissue culture dishes, allowed to grow to 60 -70% confluence and then were treated with different concentrations of IP6 in serum free media. After 48 hours conditioned media was collected and immediately analyzed for matrix metalloproteinase activity. 10% Polyacrilamide gels were used to perform electrophoresis, following which gels were incubated in renaturating buffer for 30 minutes with gentle agitation. Incubation was continued in developing buffer overnight at 37° C. At the end of incubation time gels were stained with Comassie blue staining solution for 10 minutes, rinsed with destaining solution one (9.2% acetic acid, 45.4% methanol) and incubated with destaining solution two (10% acetic acid and 10% methanol) at room temperature as needed. Proteinase activity was measured using UN-SCAN-IT gel digitizing software for Windows and expressed as percentage according to the amount of determined Pixel average for each band.

Series [5] shares this test system. Nature of the series: MMP-2 zymography, culture media of osteoclast cells. It is filed as cell-based, human. Conditions: 100 and 300 μM of IP6. How it is done: as §6, §7

`C[C@]12CCC(=O)C=C1CC[C@@H]1[C@@H]2[C@@H](O)C[C@@]2(C)[C@H]1CC[C@]2(O)C(=O)CO` [Hydrocortisone, hydrocortisone, reference compound]: the “reduction of the number of osteoblast cells” value in the series on MG-63 osteoblast cells (10 μM hydrocortisone, p < 0.05) is reported as 30.5%.

Take `O=P(O)(O)O[C@H]1[C@H](OP(=O)(O)O)[C@@H](OP(=O)(O)O)[C@H](OP(=O)(O)O)[C@@H](OP(=O)(O)O)[C@H]1OP(=O)(O)O` [IP6, inositol hexaphosphate]: the “effect on titratable acidity” value in series [1] (Fresca, 0.5% addition (FIG. 9)) is “reduction in titratable acidity”; in series [1] (Mountain Dew, 1.0% addition (FIG. 9)), “reduction in titratable acidity”; in series [1] (Sprite, 0.5% addition (FIG. 9)), “reduction in titratable acidity”. The “effect on enamel dissolution” value in series [2] (5% lemon juice) and in series [2] (Mountain Dew) was “reduction in enamel dissolution” throughout. For the same compound, the “effect on enamel erosivity” value in series [2] (Mountain Dew beverage (FIG. 7)) and in series [2] (Red Bull beverage (FIG. 8)) was “reducing enamel erosivity” each time. Besides, the “absorbance at 540 nm (MTT), mean ± SD” value in the series with HS-883 osteoclast cells (300 μM Na-IP6 + 70 μM inositol with 10 μM hydrocortisone) is 0.45 ± 0.02; with HS-883 osteoclast cells (300 μM Na-IP6 + 70 μM inositol, no hydrocortisone (control 0.52 ± 0.01)), 0.34 ± 0.02. Further, the “proliferation of osteoclast cells” value in the series with HS-883 osteoclast cells (in vitro IP6 treatment) was “suppresses the proliferation”. Moreover, the “absorbance at 540 nM (MTT), mean ± SD” value was found to be 1.73 ± 0.03 in the series with MG-63 osteoblast cells (Na-IP6 50 μM + 70 μM inositol with 10 μM hydrocortisone) and 1.69 ± 0.09 in the series with MG-63 osteoblast cells (Na-IP6 50 μM + 70 μM inositol, no hydrocortisone (control 1.54 ± 0.12)). Moreover, the “effect on hydrocortisone suppression of osteoblast growth/proliferation” value in the series on MG-63 osteoblast cells (with 10 μM hydrocortisone, 50-300 μM sodium salt of IP6 and 70 μM inositol) is “opposes the negative effect of hydrocortisone”. The “ALP activity/expression in osteoblast cells” value in series [3] is on record as “activates”. In addition, the “MMP-2 expression in osteoblast cells” value in series [4] (MG-63 cells) is given as “activates”. Besides, the “activity of gelatinase A in culture media” value in series [4] (300 μM of IP6) was “Significant increase of activity”; in series [4] (IP6 50 to 300 μM, 48 hours), “increased the activity of gelatinase A”. Besides, the “pro-MMP-2 and MMP-2 activity” value in series [5] is “decrease”.

`O=P([O-])([O-])O[C@H]1[C@H](OP(=O)([O-])O)[C@H](OP(=O)([O-])[O-])[C@H](OP(=O)([O-])O)[C@@H](OP(=O)([O-])[O-])[C@@H]1OP(=O)([O-])O.[Na+].[Na+].[Na+].[Na+].[Na+].[Na+].[Na+].[Na+].[Na+]` [Na-IP6, dodecasodium inositol hexaphosphate]: the “% TA” value in series [1] (Fresca, after addition of 0.5 g Ca-Mg IP6 + Inositol or 1 g Na-IP6 (beverage alone 0.46)) was 0.0%; in series [1] (Red Bull, after addition of 0.5 g Ca-Mg IP6 + Inositol or 1 g Na-IP6 (beverage alone 1.04)), 0.22%.
